Results: PMC9014415, “Repositioning of a Diaminothiazole Series Confirmed to Target the Cyclin-Dependent Kinase CRK12 for Use in the Treatment of African Animal Trypanosomiasis” (Journal of Medicinal Chemistry, 2022)

Assays:
[1] = tested on: T. b. brucei; experiment: In vitro drug sensitivity assay, bloodstream-form T. b. brucei; assay type: cell-based; conditions: Trypanosoma brucei, n = 12
Protocol: 1.1 In vitro drug sensitivity assays - Trypanosoma brucei brucei
Drug sensitivity assays were carried out with bloodstream-form (BSF) T. b. brucei ‘single marker’ S427 cells grown at 37°C with 5% CO2 in HMI-9T medium,1 as previously described.2 1.2 In vitro drug sensitivity assays - Trypanosoma congolense
EC50 values for test compounds against T. congolense (IL3000 strain) were conducted as previously described3 with minor modifications.4 Briefly, trypanosome cell densities were determined using a CASY cell counter (Schärfe) and diluted to a seeding density of 2 x 105 trypanosomes/mL. […] Absorbance was read using a SpectraMax (Gemini XS) fluorescence reader at an excitation wavelength of 536 nm and an emission wavelength of 588 nm. EC50 values were determined using SOFTmax Pro 5.2 analysis software. […]
Since T. vivax cannot be cultured axenically, BSF trypanosomes were harvested from an infected mouse with high parasitemia via cardiac puncture and used directly in ex vivo assays. EC50 values were determined against T, vivax (STIB 719/ ILRAD 560) as previously described3, with minor modifications. Briefly, cell densities were determined using a Neubauer chamber and then diluted to a seeding density of 4 x 105 trypanosomes / mL. […] Absorbance was read using a SpectraMax (Gemini XS) fluorescence reader at an excitation wavelength of 536 nm and an emission wavelength of 588 nm. […]

[2] = PK and formulation studies in Sprague Dawley rats, IM; assay type: in vivo; conditions: rat, single IM 5 mg/kg
Protocol: 2.4 Protein plasma binding […]
2.6 PK and formulation studies - male Sprague rats
Compound 1 was dosed SC at 5 mg free base/kg (dose volume 0.2 or 1 mL/kg; dose vehicle 10% N-methyl-2- pyrrolidinone (NMP), 30% 2-pyrrolidinone, 40% PEG400, 20% deionized water or 10% DMSO, 30% PEG400 and 60% deionized water, respectively) or IM at 5 and 10 mg free base/kg (dose volume 0.2 mL/kg; dose vehicle 10% NMP, 30% 2-pyrrolidinone, 40% PEG400, 20% deionized water or 83.4% 2-pyrrolidinone/polyvinylpyrrolidone (PVP), 16.6% saline or 80% 2-pyrrolidinone/NMP/PVP, 20% (0.05% 2-propanol in saline) to male SD rats (n=3).
Compound 2 was dosed IV at 3 mg free base/kg (dose volume 1 mL/kg; dose vehicle: 10% DMSO, 40% PEG400 and 50% deionized water) or IM at 5, 10 and 20 mg free base/kg (dose volume 0.2 […]
and 0.4 mL/kg; dose vehicle 10% NMP, 30% 2-pyrrolidinone, 40% PEG400, 20% deionized water or 83.4% 2-pyrrolidinone/polyvinylpyrrolidone (PVP), 16.6% saline or 80% 2-pyrrolidinone/NMP/PVP, 20% 0.05% 2-propanol in saline or 40% 0.3M Acetate Buffer, 20% Kolliphor, 20% glycerol formal, 20% 2-pyrrolidinone or 40% 0.3M Acetate Buffer, 20% glycerol formal, 20% 2-pyrrolidinone) to male SD rats (n=3). […]
Compound 2 was dosed IM at 10 mg free base/kg (dose volume 2 mL/10 kg; dose vehicle 40% 0.3 M Acetate Buffer, 20% Kolliphor EL, 20% glycerol formal, 20% 2-pyrrolidone) or IV at 2 mg free base/kg (dose volume 0.4 mL/10 kg; 40% 0.3 M Acetate Buffer, 20% Kolliphor EL, 20% glycerol formal, 20% 2-pyrrolidone) to male ruminating Holstein-Friesian cross animals (n = 3). Blood samples were taken from each animal using 18-G needles into EDTA (K2) vacutainers before dosing […]
into a cool box containing iced water and were processed within 2 h of collection.
2.8 Formulation and tolerability studies for compound 2 (NorthWest Biopharm) A study to identify alternative formulations was conducted. Compound 2, either as the hydrochloride salt or free base, was screened to identify a 50 mg/mL soluble formulation suitable for injection. […]
Kolliphor EL, N-methyl pyrrolidone, 2-pyrrolidone and 11% water at 5 mg/kg was assessed, IM […]
A screen of salt forms as alternatives to the hydrochloride was carried out at Drugabilis. Ten pharmaceutically acceptable counter ions were assessed and three were selected for further study […]
(citrate, fumarate and phosphate) (Figure 9). These alternative salt forms of compound 2 were prepared and formulated in the best vehicle determined by injection site tolerability analysis (0.3M sodium acetate buffer, Kolliphor EL, N-methyl pyrrolidone, 2-pyrrolidone, and 11% water suitable for injection). […]

With `CC(C)CS(=O)(=O)N[C@H]1CC[C@H](Nc2nc(N)c(C(=O)c3c(F)cccc3F)s2)CC1` [Compound 1, N-((trans)-4-((4-Amino-5-(2,6-difluorobenzoyl)thiazol-2-yl)amino)cyclohexyl)-2-methylpropane-1-sulfonamide] the EC50 [1] was 1.3 nM, the Cmax ([2]; male, blood, Sprague Dawley rats, 10% NMP, 30% 2-pyrrolidinone, 40% PEG400, 20% water, mean) was 92 ng/mL and the AUC(0-t) ([2]; male, blood, Sprague Dawley rats, 10% NMP, 30% 2-pyrrolidinone, 40% PEG400, 20% water, mean, read-out: AUC0-8 (converted)) was 354 ng·h/mL. The “Time at which free concentration in blood <EC99” value ([2]; formulation A: 83.4% PVP/2-pyrrolidone, 16.6% saline) was 3 h and the “Time at which free concentration in blood <EC99” value ([2]; formulation B: 80% vehicle 1 (NMP:2-pyrrolidone): 20% vehicle 2) was 4 h.
